Our source for the remaining activity and IC50 values is PMC12655252, “Synthesis of 1H-Pyrrolo[3,2-g]isoquinoline Derivatives as Ligands Targeting Haspin Kinase” (Molecules, 2025).

Common to all, as to type: biochemical
One assay has as its target T1, HsCLK1 (Homo sapiens, UniProt P49759).
T1 construct: made in house; host or cells: Sf9 insect cells
The assay can be described thus: ADP-Glo in vitro kinase inhibition assay, CLK1. The note with it: 10 μM ATP; for remaining activity at 1 µM: 1 μM compound; for remaining activity at 1 µM / remaining activity at 10 µM: read-out: CLK1 % residual activity; for remaining activity at 10 µM: 10 μM compound. On the procedure: (§1) We previouly reported that substitution at the 3-position with halogen atoms or pyridinyl or formyl groups was compatible with high potency toward Haspin kinase. To check if the current structural changes were in line with potent Haspin inhibition and high selectivity, enabling consideration of these compounds as possible targeting ligands for the PROTAC approach, compounds 2, 3, 8–11, and 15–17 were evaluated toward a panel of eight protein kinases, including Haspin, as well as other kinases known to be frequently cross-inhibited (CLK1, DYRK1A, CDK9/Cyclin T, GSK-3β, CK1ε, CDK5/p25, and Pim1) (Table 1). The percentage of residual kinase activity was evaluated at 10 μM and 1 μM compound concentrations. […].
(§2) Kinase inhibition was tested in 384-well plates using the ADP-GloTM assay kit (Promega, Madison, WI, USA) according to the procedure recommended by the manufacturer. Reactions were set up in a final volume of 6 μL in an appropriate kinase buffer (10 mM MgCl2, 1 mM EGTA, 1 mM DTT, 25 mM Tris-HCl pH 7.5, 50 μg/mL heparin) with either protein or peptide as the substrate in the presence of 10 μM ATP. To stop the kinase reaction, 6 μL of ADP-GloTM Kinase Reagent was added after 30 min at 30 °C. Then, after 50 min of incubation at room temperature (RT), 12 μL of Kinase Detection Reagent was added. The transmitted signal was measured after 1 h at RT using the Envision (Perkin Elmer, Waltham, MA, USA) microplate luminometer and expressed in relative light units (RLU). In order to determine the half-maximal inhibitory concentration (IC50), all assays were performed in duplicate in the absence or presence of increasing doses of the tested compounds. GraphPad Prism10 software (GraphPad Software, San Diego, CA, USA) was used to fit dose–response curves and to determine the IC50 values. Kinase activities are given as percentages of maximal activity, i.e., measured in the absence of inhibitor. Peptide substrates were obtained from Proteogenix (Schiltigheim, France).
(§3) The following protein kinases were analyzed in this study: CDK5/p25 (human, vector pGEX-2T, expressed in bacteria; kindly provided by Dr. J. H. Wang) was assayed with 0.8 μg/μL of histone H1 as substrate; HsCDK9/CyclinT (NP_001252/KAI4065659, cloned in pTEFb vector, expressed by baculovirus in Sf9 insect cells) were assayed with 0.27 μg/μL of the following peptide: […], as substrate; HsCK1ε (NP_001885, cloned in pFAST-BAC vector, expressed in Sf9 insect cells) was assayed with 0.022 μg/μL of the following peptide: […]pAYSITA (“Sp” stands for phosphorylated serine) as CK1-specific substrate; HsGSK3β (AAH12760, cloned in pFAST-BAC, expressed by baculovirus in Sf9 insect cells) were assayed with 0.010 μg/μL of GS-1 peptide, a GSK-3-selective substrate ([…]pEDEEE); HsHaspin-kd (NP_114171, kinase domain, amino acids 470–798 cloned in pGEX-6P-3, expressed in bacteria) was assayed with 0.007 μg/μL of histone H3 (1–21) peptide ([…]) as substrate; Pim-1 (KAI4018123, expressed in bacteria) was assayed with 0.8 μg/μL of histone H1 as substrate; HsCLK1 (NP_004062, cloned in pFAST-BAC, expressed in Sf9 insect cells) was assayed with 0.027 μg/μL of the peptide: […]; RnDYRK1A-kd (Rattus norvegicus, amino acids 1–499, pGEX-2TK, expressed in bacteria, gift from Dr. W. Becker, Aachen, Germany) was tested in the presence of 0.033 μg/μL of the peptide: […].
A general note: ADP-Glo turns the ADP formed in a reaction into a luminescent signal.

The next assay deals with T2, RnDYRK1A-kd (Rattus norvegicus, UniProt Q63470).
T2 construct: Rattus norvegicus, amino acids 1–499, pGEX-2TK; made in house; host or cells: bacteria
The assay can be described thus: ADP-Glo in vitro kinase inhibition assay, DYRK1A. The note with it: 10 μM ATP; for remaining activity at 1 µM: 1 μM compound; for remaining activity at 1 µM / remaining activity at 10 µM: read-out: DYRK1A % residual activity; for remaining activity at 10 µM: 10 μM compound. On the procedure:
as §1, §2, §3

The target in a further assay is T3, HsGSK3β (Homo sapiens, UniProt P49841).
T3 construct: made in house; host or cells: Sf9 insect cells (baculovirus)
T3 sequence (P49841 whole entry): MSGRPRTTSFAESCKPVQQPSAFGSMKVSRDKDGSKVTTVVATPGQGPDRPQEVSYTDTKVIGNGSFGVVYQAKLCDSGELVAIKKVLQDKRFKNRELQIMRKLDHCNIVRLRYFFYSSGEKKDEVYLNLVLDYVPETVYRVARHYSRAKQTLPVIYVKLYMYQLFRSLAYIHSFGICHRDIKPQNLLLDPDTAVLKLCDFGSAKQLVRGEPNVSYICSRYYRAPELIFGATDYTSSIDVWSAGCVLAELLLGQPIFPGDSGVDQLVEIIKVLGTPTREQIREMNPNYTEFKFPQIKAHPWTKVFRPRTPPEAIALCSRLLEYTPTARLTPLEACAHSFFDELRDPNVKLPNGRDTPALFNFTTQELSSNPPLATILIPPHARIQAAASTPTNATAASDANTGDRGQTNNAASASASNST
Kind of assay: ADP-Glo in vitro kinase inhibition assay, GSK3β. The note with it: 10 μM ATP, read-out: GSK3 % residual activity; for remaining activity at 1 µM: 1 μM compound; for remaining activity at 10 µM: 10 μM compound. On the procedure:
as §1, §2, §3

A further assay addresses T4, HsCK1ε (Homo sapiens, UniProt P49674).
T4 construct: made in house; host or cells: Sf9 insect cells
The assay can be described thus: ADP-Glo in vitro kinase inhibition assay, CK1ε. The note with it: 10 μM ATP, read-out: CK1 % residual activity; for remaining activity at 1 µM: 1 μM compound; for remaining activity at 10 µM: 10 μM compound. On the procedure:
as §1, §2, §3

Usually IC50 stands for the concentration that gives 50% inhibition. Lower therefore signals greater potency.

T1 sequence (P49759 whole entry): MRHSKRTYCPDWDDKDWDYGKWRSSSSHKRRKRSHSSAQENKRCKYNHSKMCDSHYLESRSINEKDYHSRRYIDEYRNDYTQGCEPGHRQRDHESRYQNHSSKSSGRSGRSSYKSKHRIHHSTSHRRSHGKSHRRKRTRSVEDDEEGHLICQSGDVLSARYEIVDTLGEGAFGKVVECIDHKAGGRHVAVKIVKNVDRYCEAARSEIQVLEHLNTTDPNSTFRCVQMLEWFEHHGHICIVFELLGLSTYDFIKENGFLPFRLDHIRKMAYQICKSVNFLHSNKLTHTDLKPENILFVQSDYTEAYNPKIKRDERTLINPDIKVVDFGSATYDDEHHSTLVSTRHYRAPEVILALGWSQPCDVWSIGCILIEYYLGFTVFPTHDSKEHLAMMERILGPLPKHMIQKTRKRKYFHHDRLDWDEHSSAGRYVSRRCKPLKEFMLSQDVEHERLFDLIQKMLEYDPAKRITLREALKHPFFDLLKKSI
T4 sequence (P49674 whole entry): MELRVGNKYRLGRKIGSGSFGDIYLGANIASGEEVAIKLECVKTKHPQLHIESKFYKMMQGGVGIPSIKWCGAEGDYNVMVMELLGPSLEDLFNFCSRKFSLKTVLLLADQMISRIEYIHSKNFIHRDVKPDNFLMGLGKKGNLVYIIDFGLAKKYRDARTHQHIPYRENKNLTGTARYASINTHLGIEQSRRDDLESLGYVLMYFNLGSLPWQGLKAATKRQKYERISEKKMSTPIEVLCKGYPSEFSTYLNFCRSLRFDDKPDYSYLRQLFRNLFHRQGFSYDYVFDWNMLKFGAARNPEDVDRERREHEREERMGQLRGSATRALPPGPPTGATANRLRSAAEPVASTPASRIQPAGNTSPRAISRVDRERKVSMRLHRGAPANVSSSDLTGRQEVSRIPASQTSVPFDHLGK

Regarding `Nc1ccc(-c2c[nH]c3cc4cnccc4cc23)cn1` [Compound 3, 5-(1H-Pyrrolo[3,2-g]isoquinolin-3-yl)pyridin-2-amine], the remaining activity at 1 µM at HsCLK1 stood at 59%; on RnDYRK1A-kd, 15%; on HsGSK3β it was 80%; on HsCK1ε, 78%. Further, the remaining activity at 10 µM at HsCLK1 is 18%; on RnDYRK1A-kd it was 0%; at HsGSK3β, 58%; at HsCK1ε, 63%. Further, the IC50 on RnDYRK1A-kd is 212 nM.
In the case of `COC(=O)/C=C/c1c[nH]c2cc3cnccc3cc12` [Compound 8, Methyl (E)-3-(1H-Pyrrolo[3,2-g]isoquinolin-3-yl)prop-2-enoate], the remaining activity at 1 µM on HsCLK1 came out at 55%; on RnDYRK1A-kd, 43%; at HsGSK3β, 78%; at HsCK1ε it was 90%. Moreover, the remaining activity at 10 µM was found to be 22% at HsCLK1, 16% at RnDYRK1A-kd, 71% on HsGSK3β and 77% on HsCK1ε. This molecule gave an IC50 on RnDYRK1A-kd of 1130 nM.
On to `c1cc2cc3c(-c4cc[nH]n4)c[nH]c3cc2cn1` [Compound 15, 3-(1H-Pyrazol-3-yl)-1H-pyrrolo[3,2-g]isoquinoline], for which the remaining activity at 1 µM on HsCLK1 is 32%; at RnDYRK1A-kd it was 39%; on HsGSK3β, 100%; on HsCK1ε it was 100%. In addition, the IC50 against HsCLK1 turned out to be 503 nM; on RnDYRK1A-kd, 324 nM. Further, the remaining activity at 10 µM amounted to 4% on HsCLK1, 1% at RnDYRK1A-kd, 86% at HsGSK3β and 48% at HsCK1ε.
As to `c1cc2cc3c(-c4cn[nH]c4)c[nH]c3cc2cn1` [Compound 16, 3-(1H-Pyrazol-4-yl)-1H-pyrrolo[3,2-g]isoquinoline], the remaining activity at 1 µM on HsCLK1 is 4%; at RnDYRK1A-kd, 11%; at HsGSK3β, 94%; at HsCK1ε, 77%. In addition, the IC50 at HsCLK1 came out at 102 nM; against RnDYRK1A-kd, 163 nM. In addition, the remaining activity at 10 µM at HsCLK1 is 0%; on RnDYRK1A-kd, 0%; at HsGSK3β it was 17%; on HsCK1ε, 12%.
As for `c1c[nH]c(-c2c[nH]c3cc4cnccc4cc23)c1` [Compound 17, 3-(1H-Pyrrol-2-yl)-1H-pyrrolo[3,2-g]isoquinoline], the remaining activity at 1 µM at HsCLK1 was 47%; on RnDYRK1A-kd, 69%; on HsGSK3β, 71%; on HsCK1ε it was 92%. For the same molecule, the remaining activity at 10 µM is 36% on HsCLK1, 19% at RnDYRK1A-kd, 65% at HsGSK3β and 81% on HsCK1ε.
